The record followed here is US7132504B2, “Hepatitis C virus inhibitors” (Bristol-Myers Squibb Company, priority 2003, dated 2006).

Assay [1] has as its system HCV replicon in Huh7 cells. Nature of the assay: HCV replicon cell-based assay (FRET). More on the design: species or system HCV strain 1b. Conditions: Hepatitis C virus. An excerpt:
An HCV replicon whole cell system was established as described by Lohmann V, Korner F, Koch J, Herian U, Theilmann L, Bartenschlager R., Science 285(5424):110–3 (1999). This system enabled us to evaluate the effects of our HCV Protease compounds on HCV RNA replication. Briefly, using the HCV strain 1b sequence described in the Lohmann paper (Assession number:AJ238799), an HCV cDNA was generated encoding the 5′ internal ribosome entry site (IRES), the neomycin resistance gene, the EMCV (encephalomyocarditis viurs)-IRES and the HCV nonstructural proteins, NS3–NS5B, and 3′ non-translated region (NTR). In vitro transcripts of the cDNA were transfected into the human hepatoma cell line, Huh7. […] Resulting cell lines were characterized for positive and negative strand RNA production and protein production over time.
Huh7 cells, constitutively expressing the HCV replicon, were grown in Dulbecco's Modified Eagle Media (DMEM) containing 10% Fetal calf serum (FCS) and 1 mg/ml G418 (Gibco-BRL). Cells were seeded the night before (1.5×10^4 cells/well) in 96-well tissue-culture sterile plates. Compound and no compound controls were prepared in DMEM containing 4% FCS, 1:100 Penicillin/Streptomysin, 1:100 L-glutamine and 5% DMSO in the dilution plate (0.5% DMSO final concentration in the assay). Compound/DMSO mixes were added to the cells and incubated for 4 days at 37° C. After 4 days, plates were rinsed thoroughly with Phosphate-Buffered Saline (PBS) (3 times 150 μl). The cells were lysed with 25 μl of a lysis assay reagent containing the FRET peptide (RET S1, as described for the in vitro enzyme assay). The lysis assay reagent was made from 5× cell Luciferase cell culture lysis reagent (Promega #E153A) diluted to 1× with distilled water, NaCl added to 150 mM final, the FRET peptide diluted to 10 μM final from a 2 mM stock in 100% DMSO. The plate was then placed into the Cytofluor 4000 instrument which had been set to 340 nm excitation/490 nm emission, automatic mode for 21 cycles and the plate read in a kinetic mode. EC50 determinations were carried out as described for the IC50 determinations. […]
The percentage inhibition was calculated using the formula below: […]
The values were graphed and analyzed using XLFit to obtain the EC50 value.
A general note: In antiviral work, replicon cells carry a viral genome segment that copies itself.

Assay [2] has as its system human pancreatic chymotrypsin. The experiment in a line: Specificity assay, chymotrypsin. The settings on record: 2 h enzyme-inhibitor pre-incubation. It is filed as biochemical. The procedure: (§1) The specificities of compounds of the present invention were determined against a variety of serine proteases: human neutrophil elastase (HNE), porcine pancreatic elastase (PPE) and human pancreatic chymotrypsin and one cysteine protease: human liver cathepsin B. In all cases a 96-well plate format protocol using colorimetric p-nitroaniline (pNA) substrate specific for each enzyme was used as described previously (PCT Patent Application No. WO 00/09543) with some modifications to the serine protease assays. All enzymes were purchased from Sigma while the substrates were from Bachem.
(§2) Each assay included a 2 h enzyme-inhibitor pre-incubation at room temperature followed by addition of substrate and hydrolysis to ˜30% conversion as measured on a Spectramax Pro microplate reader. Compound concentrations varied from 100 to 0.4 μM depending on their potency. […]
(§3) The percentage of inhibition was calculated using the formula: [1−((UVinh−UVblank)/(UVctl−UVblank))]×100 […]

Another assay addresses T1, human liver cathepsin B (Homo sapiens, UniProt P07858).
T1 construct: purchased Sigma; host or cells: human liver
The experiment in a line: Specificity assay, cathepsin B. It is filed as biochemical. The settings on record: assay interference at higher concentrations. The procedure: as §1, §2, §3

Like-named read-outs stand apart in the source and are kept apart here. Where only a bound is given, the exact number is not on record here.

For `C=CC1C[C@]1(NC(=O)[C@@H]1C[C@@H](Oc2cc(-c3ccccc3)nc3cc(OC)ccc23)CN1C(=O)[C@@H](NC(=O)OC)C(C)(C)C)C(=O)NS(=O)(=O)N(C)Cc1ccccc1` (stereo partly shown) [Compound 9], the EC50 in assay [1] (Huh-7, 96 h, 4 days, read-out: Activity Range EC50) is 150 to 1500 nM; in assay [1] (Huh-7, read-out: EC50 value in the replicon assay) it was 403 nM. Besides, the IC50 in assay [2] is more than 200000 nM; on human liver cathepsin B it was more than 50000 nM.

The term EC50 denotes the concentration at which the effect is half-maximal. By IC50 is commonly meant the concentration at which inhibition is half-maximal. Read a low IC50 as inhibition by little substance.
